Experimental data taken from publication PMC4175002, “The Design and Synthesis of Potent and Selective Inhibitors of Trypanosoma brucei Glycogen Synthase Kinase 3 for the Treatment of Human African Trypanosomiasis” (Journal of Medicinal Chemistry, 2014).

Legend:
Type in all cases: biochemical
SGK1 = target: T1, SGK1 (Homo sapiens, UniProt O00141); experiment: Mammalian kinase profiling (DSTT panel); settings: 10 μM; average percentage of remaining activity
T1 construct: purchased Division of Signal Transduction Therapy (DSTT), University of Dundee
T1 sequence (O00141 1-431): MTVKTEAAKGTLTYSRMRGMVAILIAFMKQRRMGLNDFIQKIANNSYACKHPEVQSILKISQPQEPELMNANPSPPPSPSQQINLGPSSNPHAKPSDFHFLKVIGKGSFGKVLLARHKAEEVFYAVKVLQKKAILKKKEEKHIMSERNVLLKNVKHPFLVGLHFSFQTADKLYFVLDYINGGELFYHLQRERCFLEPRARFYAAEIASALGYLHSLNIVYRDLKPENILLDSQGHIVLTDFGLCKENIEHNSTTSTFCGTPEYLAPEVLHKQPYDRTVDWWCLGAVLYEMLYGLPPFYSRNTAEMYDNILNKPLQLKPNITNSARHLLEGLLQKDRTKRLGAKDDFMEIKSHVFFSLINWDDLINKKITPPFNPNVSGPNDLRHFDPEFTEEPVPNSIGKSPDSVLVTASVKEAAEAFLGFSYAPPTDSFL
Experimental: (§1) To assess the selectivity of the aminopyrazole inhibitors, remaining activity at 10 μM concentration was measured for compounds 4f, 4m, and 4y against a panel of 80 human PKs and for compound 9g against 124 human PKs. […] Compound 4m inhibited only two PKs, namely GSK3β and CDK2, at more than 80%.
(§2) Selected compounds were screened against a panel of mammalian kinases routinely run by the Division of Signal Transduction Therapy (DSTT) at the University of Dundee in duplicate at 10 μM.[32] Enzymes included in the panel and assay conditions are reported in the literature. All biochemical assays are run below the Km^app for the ATP for each enzyme, allowing comparison of inhibition across the panel.

BTK = target: T2, BTK (Homo sapiens, UniProt Q06187); experiment: Mammalian kinase profiling (DSTT panel); settings: 10 μM; average percentage of remaining activity
T2 construct: purchased Division of Signal Transduction Therapy (DSTT), University of Dundee
Experimental: as §1, §2

CK2 = target: T3, CK2 (Homo sapiens, UniProt P68400); experiment: Mammalian kinase profiling (DSTT panel); settings: 10 μM; average percentage of remaining activity
T3 construct: purchased Division of Signal Transduction Therapy (DSTT), University of Dundee
Experimental: as §1, §2

S6K1 = target: T4, S6K1 (Homo sapiens, UniProt P23443); experiment: Mammalian kinase profiling (DSTT panel); settings: 10 μM; average percentage of remaining activity
T4 construct: purchased Division of Signal Transduction Therapy (DSTT), University of Dundee
Experimental: as §1, §2

PRAK = target: T5, PRAK (Homo sapiens, UniProt Q8IW41); experiment: Mammalian kinase profiling (DSTT panel); settings: 10 μM; average percentage of remaining activity
T5 construct: purchased Division of Signal Transduction Therapy (DSTT), University of Dundee
T5 sequence (Q8IW41 1-473): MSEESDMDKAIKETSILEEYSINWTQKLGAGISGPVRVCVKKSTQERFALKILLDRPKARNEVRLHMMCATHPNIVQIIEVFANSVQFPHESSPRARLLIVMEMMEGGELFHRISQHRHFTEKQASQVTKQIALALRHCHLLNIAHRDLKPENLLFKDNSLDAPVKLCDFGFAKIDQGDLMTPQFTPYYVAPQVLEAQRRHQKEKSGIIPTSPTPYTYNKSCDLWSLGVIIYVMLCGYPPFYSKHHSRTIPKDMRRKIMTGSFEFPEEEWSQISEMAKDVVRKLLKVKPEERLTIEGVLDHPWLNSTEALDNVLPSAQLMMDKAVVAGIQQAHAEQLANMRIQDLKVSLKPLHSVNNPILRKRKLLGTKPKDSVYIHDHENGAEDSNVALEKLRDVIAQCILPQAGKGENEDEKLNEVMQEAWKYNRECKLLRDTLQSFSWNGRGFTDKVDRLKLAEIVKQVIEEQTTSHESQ
Experimental: as §1, §2

SRPK1 = target: T6, SRPK1 (Homo sapiens, UniProt Q96SB4); experiment: Mammalian kinase profiling (DSTT panel); settings: 10 μM; average percentage of remaining activity
T6 construct: purchased Division of Signal Transduction Therapy (DSTT), University of Dundee
Experimental: as §1, §2

SmMLCK = target: T7, SmMLCK (Homo sapiens, UniProt Q15746); experiment: Mammalian kinase profiling (DSTT panel); settings: 10 μM; average percentage of remaining activity
T7 construct: purchased Division of Signal Transduction Therapy (DSTT), University of Dundee
Experimental: as §1, §2

PKA = target: T8, PKA (Homo sapiens, UniProt P17612); experiment: Mammalian kinase profiling (DSTT panel); settings: 10 μM; average percentage of remaining activity
T8 construct: purchased Division of Signal Transduction Therapy (DSTT), University of Dundee
Experimental: as §1, §2

CHK2 = target: T9, CHK2 (Homo sapiens, UniProt O96017); experiment: Mammalian kinase profiling (DSTT panel); settings: 10 μM; average percentage of remaining activity
T9 construct: purchased Division of Signal Transduction Therapy (DSTT), University of Dundee
Experimental: as §1, §2

P38g MAPK = target: T10, P38g MAPK (Homo sapiens, UniProt P53778); experiment: Mammalian kinase profiling (DSTT panel); settings: 10 μM; average percentage of remaining activity
T10 construct: purchased Division of Signal Transduction Therapy (DSTT), University of Dundee
T10 sequence (P53778 1-367): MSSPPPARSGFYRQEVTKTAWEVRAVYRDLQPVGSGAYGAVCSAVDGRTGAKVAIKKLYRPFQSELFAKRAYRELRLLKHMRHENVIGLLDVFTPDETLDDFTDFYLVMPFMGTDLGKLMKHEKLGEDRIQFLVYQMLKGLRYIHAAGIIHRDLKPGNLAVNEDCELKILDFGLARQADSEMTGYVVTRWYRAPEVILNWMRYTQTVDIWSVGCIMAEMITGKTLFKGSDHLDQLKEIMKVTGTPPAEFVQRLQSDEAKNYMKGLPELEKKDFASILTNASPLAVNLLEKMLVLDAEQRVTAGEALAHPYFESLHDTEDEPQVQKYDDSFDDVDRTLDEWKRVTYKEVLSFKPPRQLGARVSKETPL
Experimental: as §1, §2

MSK1 = target: T11, MSK1 (Homo sapiens, UniProt O75582); experiment: Mammalian kinase profiling (DSTT panel); settings: 10 μM; average percentage of remaining activity
T11 construct: purchased Division of Signal Transduction Therapy (DSTT), University of Dundee
Experimental: as §1, §2

PKBb = target: T12, PKBb (Homo sapiens, UniProt P31751); experiment: Mammalian kinase profiling (DSTT panel); settings: average percentage of remaining activity, read-out: PKBb activity compared to the control
T12 construct: purchased Division of Signal Transduction Therapy (DSTT), University of Dundee
Experimental: as §1, §2

YES1 = target: T13, YES1 (Homo sapiens, UniProt P07947); experiment: Mammalian kinase profiling (DSTT panel); settings: 10 μM; average percentage of remaining activity
T13 construct: purchased Division of Signal Transduction Therapy (DSTT), University of Dundee
Experimental: as §1, §2

HsGSK3β = HsGSK3β (Homo sapiens, UniProt P49841); experiment: Radiometric Flashplate potency assay, HsGSK3β; settings: ratio of IC50 values
Experimental: For compound potency determinations, a radiometric 96-well Flashplate assay (PerkinElmer) was adopted. Compounds were solubilized in DMSO at a top concentration of 3 mM and serially diluted to achieve 10-point titration of final assay concentrations from 30 μM to 0.3 nM with a final DMSO concentration of 1% (v/v). The reaction mixtures contained 1 μM biotinylated GSP2 substrate, 1 μM ATP, 3.7 KBq/well [γ-33P]-ATP and 2.5 nM TbGSK3 in the TbGSK3 kinase assay buffer. GSK3 inhibitors were screened for selectivity assessment also against HsGSK3β. For HsGSK3 assay, the reaction mixes contained 1 μM biotinylated GSP2 substrate, 2 μM ATP, 7.4 KBq/well [γ-33P]-ATP and 15 nM HsGSK3β in the TbGSK3 kinase assay buffer (25 mM Tris-HCl, pH 7.5, 10 mM MgCl2, 5 mM DTT, 0.02% CHAPS, 2 U/mL heparin). For HsCDK2/cyclin A assay, the reaction mixtures contained 1 mM CDK5 biotinylated peptide substrate (Biotin-C6-PKTPKKAKKL), 1 μM ATP, 7.4 KBq/well [γ-^33P]-ATP and 2 nM HsCDK2/cyclin A in the kinase assay buffer (50 mM Tris-HCl, pH 7.5, 10 mM MgCl2, 2 mM DTT, 100 mM NaCl, 0.2 mM EGTA, 0.02% (v/v) Brij35).
This implies that a difference of >0.3 in pIC50 can be considered statistically significant for this assay.

T6 sequence (Q96SB4 whole entry): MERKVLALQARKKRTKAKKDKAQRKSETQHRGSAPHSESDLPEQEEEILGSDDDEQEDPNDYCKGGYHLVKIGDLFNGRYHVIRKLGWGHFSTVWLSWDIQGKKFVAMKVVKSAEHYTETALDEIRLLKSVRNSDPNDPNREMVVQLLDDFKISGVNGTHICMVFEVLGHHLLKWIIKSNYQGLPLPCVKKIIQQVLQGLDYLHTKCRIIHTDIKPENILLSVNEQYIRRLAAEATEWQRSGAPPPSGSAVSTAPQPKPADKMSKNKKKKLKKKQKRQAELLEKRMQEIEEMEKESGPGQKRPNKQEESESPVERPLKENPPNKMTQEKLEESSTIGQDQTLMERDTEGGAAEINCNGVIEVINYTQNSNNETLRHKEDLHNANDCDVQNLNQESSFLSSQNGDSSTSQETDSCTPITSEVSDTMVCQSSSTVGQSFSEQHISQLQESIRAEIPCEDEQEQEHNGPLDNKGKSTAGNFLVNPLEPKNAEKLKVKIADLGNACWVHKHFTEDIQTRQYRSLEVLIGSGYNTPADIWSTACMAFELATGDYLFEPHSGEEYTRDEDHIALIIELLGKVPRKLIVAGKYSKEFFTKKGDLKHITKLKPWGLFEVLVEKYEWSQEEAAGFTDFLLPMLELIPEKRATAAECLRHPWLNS
T12 sequence (P31751 whole entry): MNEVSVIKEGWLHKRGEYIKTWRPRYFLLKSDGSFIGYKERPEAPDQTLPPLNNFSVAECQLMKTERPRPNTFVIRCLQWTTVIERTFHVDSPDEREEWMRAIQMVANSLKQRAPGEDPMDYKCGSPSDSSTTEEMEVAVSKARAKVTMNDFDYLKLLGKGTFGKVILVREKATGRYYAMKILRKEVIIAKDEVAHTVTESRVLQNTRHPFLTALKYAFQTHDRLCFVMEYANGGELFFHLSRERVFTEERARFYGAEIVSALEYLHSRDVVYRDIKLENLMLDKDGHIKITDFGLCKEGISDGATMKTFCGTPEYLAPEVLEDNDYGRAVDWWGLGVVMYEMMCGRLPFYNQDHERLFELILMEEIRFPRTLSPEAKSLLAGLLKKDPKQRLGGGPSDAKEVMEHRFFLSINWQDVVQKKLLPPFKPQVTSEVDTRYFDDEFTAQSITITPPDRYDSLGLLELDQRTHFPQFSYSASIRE
T9 sequence (O96017 whole entry): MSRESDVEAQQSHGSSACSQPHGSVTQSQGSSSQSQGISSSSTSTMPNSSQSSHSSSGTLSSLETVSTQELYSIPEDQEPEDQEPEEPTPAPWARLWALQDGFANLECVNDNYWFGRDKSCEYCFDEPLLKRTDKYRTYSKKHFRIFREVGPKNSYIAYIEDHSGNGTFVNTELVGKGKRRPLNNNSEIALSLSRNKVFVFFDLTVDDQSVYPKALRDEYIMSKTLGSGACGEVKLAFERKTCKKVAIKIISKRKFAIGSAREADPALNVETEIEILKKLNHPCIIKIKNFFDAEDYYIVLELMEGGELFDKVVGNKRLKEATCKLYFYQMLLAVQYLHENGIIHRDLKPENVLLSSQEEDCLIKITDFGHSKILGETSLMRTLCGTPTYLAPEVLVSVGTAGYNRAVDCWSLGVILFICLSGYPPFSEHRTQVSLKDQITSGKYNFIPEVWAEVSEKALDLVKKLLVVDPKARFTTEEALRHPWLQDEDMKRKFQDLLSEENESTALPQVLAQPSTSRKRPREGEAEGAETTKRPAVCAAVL
T7 sequence (Q15746 923-1914): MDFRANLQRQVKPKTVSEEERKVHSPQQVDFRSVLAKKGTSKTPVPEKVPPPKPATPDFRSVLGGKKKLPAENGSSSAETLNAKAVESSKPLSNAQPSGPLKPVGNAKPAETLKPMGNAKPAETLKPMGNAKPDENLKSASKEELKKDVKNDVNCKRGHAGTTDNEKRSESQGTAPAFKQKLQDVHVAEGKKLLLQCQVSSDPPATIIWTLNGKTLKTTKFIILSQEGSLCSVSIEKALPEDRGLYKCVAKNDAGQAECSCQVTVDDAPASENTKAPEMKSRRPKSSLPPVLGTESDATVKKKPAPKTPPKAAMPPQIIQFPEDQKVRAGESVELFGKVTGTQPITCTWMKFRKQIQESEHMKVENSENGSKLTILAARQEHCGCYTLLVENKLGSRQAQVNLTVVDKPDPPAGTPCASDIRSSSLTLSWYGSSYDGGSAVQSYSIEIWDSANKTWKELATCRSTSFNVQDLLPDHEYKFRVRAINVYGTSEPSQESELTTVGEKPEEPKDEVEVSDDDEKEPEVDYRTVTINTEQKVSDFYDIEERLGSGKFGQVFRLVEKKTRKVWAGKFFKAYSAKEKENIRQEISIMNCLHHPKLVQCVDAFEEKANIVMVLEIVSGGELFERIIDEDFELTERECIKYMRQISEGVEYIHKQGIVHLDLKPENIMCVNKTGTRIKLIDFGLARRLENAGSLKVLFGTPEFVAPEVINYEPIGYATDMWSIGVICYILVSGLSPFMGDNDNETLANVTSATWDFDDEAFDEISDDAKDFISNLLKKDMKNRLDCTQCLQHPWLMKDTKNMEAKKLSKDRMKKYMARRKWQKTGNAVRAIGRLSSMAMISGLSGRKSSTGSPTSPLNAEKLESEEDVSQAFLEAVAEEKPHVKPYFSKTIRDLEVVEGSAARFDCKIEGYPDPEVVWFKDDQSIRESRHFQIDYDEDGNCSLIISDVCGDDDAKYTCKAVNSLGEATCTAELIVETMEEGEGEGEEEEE
HsGSK3β, sequence (P49841 whole entry): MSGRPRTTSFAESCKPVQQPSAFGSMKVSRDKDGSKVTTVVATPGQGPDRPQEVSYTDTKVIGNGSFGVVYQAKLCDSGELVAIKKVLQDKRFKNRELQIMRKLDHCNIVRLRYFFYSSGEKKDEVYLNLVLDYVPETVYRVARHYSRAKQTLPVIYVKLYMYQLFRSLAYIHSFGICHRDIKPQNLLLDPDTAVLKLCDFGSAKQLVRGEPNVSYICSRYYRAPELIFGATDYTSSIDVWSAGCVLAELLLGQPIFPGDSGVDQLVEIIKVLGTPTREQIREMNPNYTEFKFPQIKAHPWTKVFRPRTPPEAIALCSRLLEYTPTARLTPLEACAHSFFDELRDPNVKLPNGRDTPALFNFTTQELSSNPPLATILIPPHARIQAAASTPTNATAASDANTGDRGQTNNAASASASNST
T4 sequence (P23443 whole entry): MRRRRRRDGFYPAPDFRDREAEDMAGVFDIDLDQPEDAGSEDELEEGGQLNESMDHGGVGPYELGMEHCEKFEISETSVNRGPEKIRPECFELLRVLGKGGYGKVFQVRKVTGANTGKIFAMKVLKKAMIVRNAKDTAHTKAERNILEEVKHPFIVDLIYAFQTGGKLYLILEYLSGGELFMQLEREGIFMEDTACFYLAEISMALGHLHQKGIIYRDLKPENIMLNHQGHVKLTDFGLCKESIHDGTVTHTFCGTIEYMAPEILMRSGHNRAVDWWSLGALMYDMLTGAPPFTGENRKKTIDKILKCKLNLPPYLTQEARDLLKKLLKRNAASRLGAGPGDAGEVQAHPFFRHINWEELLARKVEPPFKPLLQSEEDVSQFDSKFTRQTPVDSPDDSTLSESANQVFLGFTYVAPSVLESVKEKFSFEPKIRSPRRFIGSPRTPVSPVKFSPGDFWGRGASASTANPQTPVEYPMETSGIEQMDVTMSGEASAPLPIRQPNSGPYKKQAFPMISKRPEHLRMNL
T13 sequence (P07947 whole entry): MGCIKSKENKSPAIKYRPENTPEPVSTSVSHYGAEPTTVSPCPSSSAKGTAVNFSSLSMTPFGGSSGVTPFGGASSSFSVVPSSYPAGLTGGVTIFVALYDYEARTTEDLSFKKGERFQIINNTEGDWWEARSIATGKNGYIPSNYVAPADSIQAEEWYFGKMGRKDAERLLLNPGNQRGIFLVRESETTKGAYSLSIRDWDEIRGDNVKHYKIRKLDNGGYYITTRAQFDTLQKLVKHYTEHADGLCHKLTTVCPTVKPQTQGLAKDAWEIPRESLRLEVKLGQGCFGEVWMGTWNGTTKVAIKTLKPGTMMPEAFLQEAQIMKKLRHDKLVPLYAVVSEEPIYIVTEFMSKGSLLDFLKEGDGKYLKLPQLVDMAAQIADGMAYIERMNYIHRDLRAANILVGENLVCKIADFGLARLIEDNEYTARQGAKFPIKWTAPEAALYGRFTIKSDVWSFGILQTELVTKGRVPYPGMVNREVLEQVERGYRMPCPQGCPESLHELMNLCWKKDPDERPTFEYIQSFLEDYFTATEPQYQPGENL
T3 sequence (P68400 whole entry): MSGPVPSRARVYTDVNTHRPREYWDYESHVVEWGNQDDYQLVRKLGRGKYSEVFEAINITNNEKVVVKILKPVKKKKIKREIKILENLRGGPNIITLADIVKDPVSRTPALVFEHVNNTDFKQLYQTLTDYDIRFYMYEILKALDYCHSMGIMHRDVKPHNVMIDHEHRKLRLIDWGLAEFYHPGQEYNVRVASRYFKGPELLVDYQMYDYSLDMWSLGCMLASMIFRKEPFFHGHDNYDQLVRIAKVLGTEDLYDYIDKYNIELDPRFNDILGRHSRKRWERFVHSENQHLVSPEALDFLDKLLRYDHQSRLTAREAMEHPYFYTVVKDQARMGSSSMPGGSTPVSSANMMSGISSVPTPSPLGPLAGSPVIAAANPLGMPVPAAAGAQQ

| Structure (SMILES) | SGK1 activity compared to the control (SGK1) | BTK activity compared to the control (BTK) | CK2 activity compared to the control (CK2) | S6K1 activity compared to the control (S6K1) | PRAK activity compared to the control (PRAK) | SRPK1 activity compared to the control (SRPK1) | SmMLCK activity compared to the control (SmMLCK) | PKA activity compared to the control (PKA) | CHK2 activity compared to the control (CHK2) | P38g MAPK activity compared to the control (P38g MAPK) | MSK1 activity compared to the control (MSK1) | remaining activity at 10 µM (PKBb) | YES1 activity compared to the control (YES1) | ratio HsGSK3β/TbGSK3 (HsGSK3β) |
| --- | --- | --- | --- | --- | --- | --- | --- | --- | --- | --- | --- | --- | --- | --- |
| CO[C@H]1CC[C@H](NC(=O)c2n[nH]cc2NC(=O)c2ccc(-c3ccccc3)o2)CC1 [Compound 4y, N-(4-Methoxycyclohexyl)-4-(5-phenylfuran-2-carboxamido)-1H-pyrazole-3-carboxamide] | 81% | 100% | 21% | 58% | 65% | 72% | 23% | 76% | 51% | 24% | 66% | 84% | 45% | <0.72 |
| COc1cccc(OC)c1C(=O)Nc1c[nH]nc1C(=O)NC1CCC(OC)CC1 (stereo not drawn) [Compound 4m, 4-(2,6-Dimethoxybenzamido)-N-(4-methoxycyclohexyl)-1H-pyrazole-3-carboxamide] | 92% | 100% | 100% | 100% | 92% | 78% | 65% | 74% | 75% | 72% | 86% | 98% | 79% | <2.5 |
| CO[C@H]1CC[C@H](NC(=O)c2n[nH]cc2NC(=O)c2ccccc2)CC1 [Compound 4f, 4-Benzamido-N-(4-methoxycyclohexyl)-1H-pyrazole-3-carboxamide] | 89% | 100% | 74% | 100% | 52% | 90% | 25% | 81% | 100% | 60% | 80% | 45% | 100% | >0.21 |
